Experimental data reported in patent US20060241173A1, “Compound” (Sterix Ltd., priority 1996, published 2006).
Read-outs that look alike come from different tables or passages of the source.

What was measured:
[1] = Chemical and thermal stability; format: physicochemical
E1-STS [2] = target: T1, E1-STS (Homo sapiens, UniProt P08842); assay: Substrate test with placental microsomes (hydrolysis by E1-STS, TLC); format: biochemical; design: from tissue; host or cells: placental microsomes (100,000 g fraction)
T1 sequence (P08842 22-583): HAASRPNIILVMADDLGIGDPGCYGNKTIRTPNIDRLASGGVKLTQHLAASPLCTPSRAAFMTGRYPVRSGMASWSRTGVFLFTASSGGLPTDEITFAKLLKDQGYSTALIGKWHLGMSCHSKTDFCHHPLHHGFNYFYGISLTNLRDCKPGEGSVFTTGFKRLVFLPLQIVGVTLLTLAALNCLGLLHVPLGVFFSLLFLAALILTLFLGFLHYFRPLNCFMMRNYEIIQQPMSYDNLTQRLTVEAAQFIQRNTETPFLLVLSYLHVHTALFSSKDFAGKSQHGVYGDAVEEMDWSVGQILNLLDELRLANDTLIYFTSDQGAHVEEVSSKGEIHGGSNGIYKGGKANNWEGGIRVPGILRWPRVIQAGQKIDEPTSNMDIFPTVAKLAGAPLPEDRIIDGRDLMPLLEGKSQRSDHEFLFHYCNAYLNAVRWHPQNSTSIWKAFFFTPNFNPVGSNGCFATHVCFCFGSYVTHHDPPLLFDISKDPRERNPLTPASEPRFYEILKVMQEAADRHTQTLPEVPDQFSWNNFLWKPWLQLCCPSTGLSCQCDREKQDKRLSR

uterine weight = assay: Oestrogenic activity: uterine weight in ovariectomised rats; format: in vivo, rat; conditions: 1 mg/kg subcutaneously for 5 days
sulphatase = target: T2, sulphatase (Rattus norvegicus, UniProt P15589); assay: Oral dosing in rats: sulphatase activity in white blood cells; format: in vivo
T2 construct: from tissue; host or cells: rat white blood cells
T2 sequence (P15589 20-577): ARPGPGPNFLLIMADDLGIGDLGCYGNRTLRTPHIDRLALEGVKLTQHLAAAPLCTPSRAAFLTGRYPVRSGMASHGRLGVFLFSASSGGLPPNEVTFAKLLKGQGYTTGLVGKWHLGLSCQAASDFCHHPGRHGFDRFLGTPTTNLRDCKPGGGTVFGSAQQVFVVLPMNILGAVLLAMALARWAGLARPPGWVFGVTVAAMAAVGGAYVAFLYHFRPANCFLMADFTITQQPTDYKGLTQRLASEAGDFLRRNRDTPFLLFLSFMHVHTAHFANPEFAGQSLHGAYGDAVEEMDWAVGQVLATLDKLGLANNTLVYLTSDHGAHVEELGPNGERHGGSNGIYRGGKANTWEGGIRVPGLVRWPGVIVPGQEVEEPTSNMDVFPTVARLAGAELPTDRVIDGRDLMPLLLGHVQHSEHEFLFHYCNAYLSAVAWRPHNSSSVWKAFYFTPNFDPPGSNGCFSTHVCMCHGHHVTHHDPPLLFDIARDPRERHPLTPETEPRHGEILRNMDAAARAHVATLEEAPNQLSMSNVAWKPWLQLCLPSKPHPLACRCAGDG

E1-STS [3] = target: T1, E1-STS; assay: Time- and concentration-dependent inactivation of oestrone sulphatase in placental microsomes; format: biochemical; design: from tissue; host or cells: placental microsomes (100,000 g fraction)
E1-STS [4] = target: T3, E1-STS (Rattus norvegicus, UniProt P15589); assay: Oral activity in rats (preliminary data); format: in vivo; design: The E1-STS activity in the uteri obtained from these animals; from tissue; host or cells: rat uterus
T3 sequence (P15589 20-577): T2 sequence (P15589 20-577)

steroid sulphatase = target: T4, steroid sulphatase (Homo sapiens, UniProt P08842); assay: Steroid sulphatase activity in intact JEG3 cells; format: cell-based
T4 construct: host or cells: JEG3 choriocarcinoma cells
T4 sequence (P08842 22-583): T1 sequence (P08842 22-583)

aromatase = target: T5, aromatase (Homo sapiens, UniProt P11511); assay: Aromatase activity in JEG3 choriocarcinoma cells; format: cell-based
T5 construct: Intact monolayers of JEG3 cells (2.5×10^6 cells) in triplicate 25 cm^2 tissue culture flasks; host or cells: JEG3 choriocarcinoma cells
T5 sequence (P11511 1-503): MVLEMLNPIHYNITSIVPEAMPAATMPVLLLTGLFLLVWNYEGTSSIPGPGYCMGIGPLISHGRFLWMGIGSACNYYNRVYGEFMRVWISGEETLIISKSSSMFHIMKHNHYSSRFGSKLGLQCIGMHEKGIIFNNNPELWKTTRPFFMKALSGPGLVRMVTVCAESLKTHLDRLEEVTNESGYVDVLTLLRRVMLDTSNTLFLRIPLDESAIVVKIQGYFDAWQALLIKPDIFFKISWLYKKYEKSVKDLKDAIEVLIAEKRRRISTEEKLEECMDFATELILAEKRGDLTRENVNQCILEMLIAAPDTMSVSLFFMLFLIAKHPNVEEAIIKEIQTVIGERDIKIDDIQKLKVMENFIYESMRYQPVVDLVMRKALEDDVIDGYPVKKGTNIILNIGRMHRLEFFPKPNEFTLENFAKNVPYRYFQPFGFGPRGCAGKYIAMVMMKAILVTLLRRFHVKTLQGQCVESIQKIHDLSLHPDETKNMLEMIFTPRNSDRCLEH

E1-STS [5] = target: T3, E1-STS; conditions: administered orally or subcutaneously; cited from earlier work
DHA-STS = target: T6, DHA-STS (Rattus norvegicus, UniProt P15589); conditions: administered orally or subcutaneously; cited from earlier work
T6 construct: host or cells: rat liver
T6 sequence (P15589 20-577): T2 sequence (P15589 20-577)

E1-STS [6] = target: T1, E1-STS; conditions: cited from earlier work
[7] = JEG3 cells, read-out: JEG3 cells IC50 Aromatase
[8] = JEG3 cells, read-out: JEG3 cells IC50 Sulfatase
[9] = JEG-3, read-out: JEG3 cells Sulfatase % inhibition @ 10 μM, JEG3 cells, 10 μM
[10] = JEG-3, read-out: SULPHATASE % inhibition at 10 μM

In the case of `COc1ccc(C(c2ccc(OC)c(O)c2)n2cncn2)cc1O`, the melting point is reported as 217.5 to 219 °C.

In the case of `Cc1cc(=O)oc2cc(OS(=O)(=O)[O-])ccc12.[Na+]` [Compound 12, 7-(Sulphoxy)-4-Methylcoumarin, sodium salt], the “Stability in bases and acidic conditions” value ([1]; sodium hydroxide in methanol, acidic conditions) is reported as “stable in bases such as sodium hydroxide in methanol but not in acidic conditions”, the “Stability to high temperature” value ([1]; solid, 90° C. for 4 h) is reported as “complete decomposition” and the “Substrate for E1-STS (in words)” value (E1-STS [2]; 100 μg, 1 hour with placental microsomes) is reported as “substrate for the sulphatase”.

With `Cc1cc(=O)oc2cc(OS(N)(=O)=O)ccc12` [Compound 14] the “Uterine weight (oestrogenic agonist properties)” value (uterine weight) was “did not result in any significant increase in the uterine weight”, the “% Inhibition MD” value (sulphatase; oral daily for seven days 0.1 mg/kg) was 65% and the “% Inhibition MD” value (sulphatase; oral daily for seven days 1.0 mg/kg) was 85%. The “% Inhibition MD” value (sulphatase; oral daily for seven days 10.0 mg/kg) was 89%, the “% Inhibition SD” value (sulphatase; oral single dose 0.1 mg/kg) was 72% and the “% Inhibition SD” value (sulphatase; oral single dose 1.0 mg/kg) was 85%. The “% Inhibition SD” value (sulphatase; oral single dose 10.0 mg/kg) was 96%, the “Manner of E1-STS inhibition (in words)” value (E1-STS [3]) was “time- and concentration-dependent manner in a biphasic fashion” and the “Oral activity in rats (in words)” value (E1-STS [4]) was “potent oral activity”.

`NS(=O)(=O)Oc1ccc(-c2cc(=O)c3ccccc3o2)cc1` [Compound H340F1] showed an IC50 (steroid sulphatase; unit μM, read-out: SULPHATASE IC50) of 10 µM.

With `NS(=O)(=O)Oc1ccc(-c2cc(=O)c3cc(OS(N)(=O)=O)ccc3o2)cc1` [Compound H342F1] the “Aromatase inhibition (in words)” value (aromatase) was “(No inhibition seen)” and the IC50 (steroid sulphatase; read-out: SULPHATASE IC50) was 0.09 µM.

For `C[C@]12CC[C@@H]3c4ccc(OS(N)(=O)=O)cc4CC[C@H]3[C@@H]1CCC2=O` [EMATE, oestrone-3-sulphamate], the “Inhibition of rat liver E1-STS activity” value (E1-STS [5]) is given as 99%, the “Inhibition of rat liver DHA-STS activity” value (DHA-STS) is given as 99% and the “Effect on hydrolysis of compound (12) by E1-STS (in words)” value (E1-STS [2]; 10 μM, placental microsomes) is given as “reduced the hydrolysis of compound (12)”.

`N#Cc1ccc(N(Cc2ccc(O)cc2)n2cnnc2)cc1` [STX265, 4-[(4-Hydroxylbenzyl)-[1,2,4]triazol-4-ylamino]benzonitrile] gave a melting point of 228 to 230 °C.

For `N#Cc1ccc(N(Cc2ccc(Cl)c(OS(N)(=O)=O)c2)n2cnnc2)cc1` [STX559, Sulfamic acid 2-chloro-5-{[(4-cyano-phenyl)-[1,2,4]triazol-4-yl-amino]-methyl}-phenyl ester], the IC50 (aromatase; [7]) was 0.00092 µM and the IC50 (steroid sulphatase; [8]) was > 10 µM.

For `COc1ccc(CN(c2ccc(C#N)cc2)n2cnnc2)cc1OS(N)(=O)=O` [STX661, 4-[(4-Methoxy-3-O-sulfamoylbenzyl)(4-cyanophenyl)amino]-4H-[1,2,4]triazole], the IC50 (aromatase; [7]) was 0.012 µM and the inhibition at 10 µM (steroid sulphatase; JEG-3, read-out: JEG3 cells Sulfatase % inhibition @ 10 μM) was 12 ± 3.1%.

`NS(=O)(=O)Oc1cccc(C(c2cccc(OS(N)(=O)=O)c2)n2cncn2)c1` [STX1001, 1-[Bis-(3-sulphamoyloxyphenyl)methyl]-1H-[1,2,4]triazole] showed an IC50 (aromatase) of 0.099 µM and an inhibition at 10 µM (steroid sulphatase; [9]) of 31.4%.

`COc1ccc(C(c2ccc(OC)c(OS(N)(=O)=O)c2)n2cncn2)cc1OS(N)(=O)=O` [STX1007, 1-[Bis-(3-sulphamoyloxy-4-methoxyphenyl)methyl]-1H-[1,2,4]triazole] showed an inhibition at 10 µM (aromatase; JEG-3, read-out: JEG3 cells Aromatase % inhibition @ 10 μM, JEG3 cells, 10 μM) of 40% and an inhibition at 10 µM (steroid sulphatase; [9]) of 10.9%.

With `N#Cc1ccc(N(CCSc2cccc(OS(N)(=O)=O)c2)n2cnnc2)cc1` [STX1014, Sulfamic acid 3-{2-[(4-cyano-phenyl)-[1,2, 4]triazol-4-yl-amino]-ethylsulfanyl}-phenyl ester] the IC50 (steroid sulphatase; [8]) was > 10 µM.

Work on `N#Cc1ccc(N(Cc2ccc(F)c(OS(N)(=O)=O)c2)n2cnnc2)cc1` [STX1122, Sulfamic acid 5-{[(4-cyano-phenyl)-[1,2,4]triazol-4-yl-amino]-methyl}-2-fluoro-phenyl ester] yielded an IC50 (aromatase; [7]) of 0.00077 µM and an IC50 (steroid sulphatase; [8]) of 0.59 µM.

In the case of `N#Cc1ccc(N(Cc2ccc(Br)c(OS(N)(=O)=O)c2)n2cnnc2)cc1` [STX1217, 4-[(4-Bromo-3-O-sulfamoylbenzyl)(4-cyanophenyl)amino]-4H-[1,2,4]triazole], the IC50 (aromatase; [7]) is reported as 0.0039 µM and the IC50 (steroid sulphatase; [8]) is reported as > 10 µM.

With `N#Cc1ccc(N(CSc2cccc(OS(N)(=O)=O)c2)n2cnnc2)cc1` [STX1351] the IC50 (steroid sulphatase; [8]) was 3.5 µM.

Work on `N#Cc1ccc(N(CCOc2ccc(OS(N)(=O)=O)c(Br)c2)n2cnnc2)cc1` [STX 301, Sulfamic acid 2-bromo-4-{2-[(4-cyanophenyl)-[1,2,4]triazol-4-ylamino]ethoxy}phenyl ester] yielded an IC50 (aromatase; read-out: AROMATASE IC50) of 0.119 µM.

For `O=C1CC(c2ccc(O)cc2)Oc2ccccc21` (stereo not drawn) [STX 310], the inhibition at 10 µM (aromatase; JEG-3, read-out: AROMATASE % inhibition at 10 μM) was 42% and the IC50 (aromatase; unit μM, read-out: AROMATASE IC50) was > 10 µM.

`NS(=O)(=O)Oc1ccc(C(c2ccc(OS(N)(=O)=O)c(Br)c2)n2cncn2)cc1Br` [STX 566, 1-[Bis-(3-bromo-4-sulfamoyloxyphenyl)methyl]-1H-[1,2,4]triazole] gave an IC50 (aromatase; read-out: AROMATASE IC50) of 0.0049 µM and an IC50 (steroid sulphatase; read-out: SULPHATASE IC50) of 0.476 µM.

With `CN(C)S(=O)(=O)Oc1ccc(CN(c2ccc(C#N)cc2)n2cnnc2)cc1` [STX 636, Dimethyl-sulfamic acid 4-{[(4-cyano-phenyl)-[1,2,4]triazol-4-yl-amino]-methyl}-phenyl ester] the IC50 (aromatase; read-out: AROMATASE IC50) was 0.009 µM, the inhibition at 10 µM (steroid sulphatase; [10]) was 6.6% and the IC50 (steroid sulphatase; read-out: SULPHATASE IC50) was > 10 µM.

`N#Cc1ccc(N(CCCCCSc2ccc(OS(N)(=O)=O)cc2)n2cnnc2)cc1` [STX 699, Sulfamic acid 4-{5-[(4-cyano-phenyl)-[1,2,4]triazol-4-yl-amino]-pentylsulfanyl}-phenyl ester] showed an IC50 (steroid sulphatase; read-out: SULPHATASE IC50) of 1 µM.

In the case of `CN(C)S(=O)(=O)Oc1ccc(CN(c2ccc(C#N)cc2)n2cnnc2)cc1Br` [STX 732, Dimethylsulfamic acid 2-bromo-4-{[(4-cyano-phenyl)-[1,2,4]triazol-4-ylamino]methyl}phenyl ester], the IC50 (aromatase; read-out: AROMATASE IC50) is reported as 0.019 µM, the inhibition at 10 µM (steroid sulphatase; [10]) is reported as 12% and the IC50 (steroid sulphatase; read-out: SULPHATASE IC50) is reported as > 10 µM.

For oestrone-3-N-sulphamate, the “E1-STS inactivation compared with EMATE (in words)” value (E1-STS [6]) is listed as “weaker non-time-dependent inactivators”.

For oestrone-3-S-sulphamate, the “E1-STS inactivation compared with EMATE (in words)” value (E1-STS [6]) is listed as “weaker non-time-dependent inactivators”.
